Results: patent US20110135571A1, “HYBRID NANOPARTICLES AS ANTI-CANCER THERAPEUTIC AGENTS AND DUAL THERAPEUTIC/IMAGING CONTRAST AGENTS” (priority 2008, published 2011)

Columns and labels:
[1] = tested on: Angiogenic human colon cancer (HT-29) cells; test: HT-29 viability assays; format: cell-based; conditions: HT-29, 2000 cells/well, 72 hours, untargeted particles
Description: (§1) Cell Lines All cell lines were purchased from the Tissue Culture Facility of the UNC Lineberger Comprehensive Cancer Center (Chapel Hill, N.C., United States of America) and cultured as per American Type Culture Collection (ATCC; Manassas, Va., United States of America) recommendations. HT29 cells (ATCC# HTB 38) were propagated in McCoy's 5A (Cellgro, Manassas, Va., United States of America) supplemented with 10% fetal bovine serum and 1% penicillin/streptomycin. MCF-7 cells (ATCC# HTB 22) were propagated in MEM Alpha (Cellgro, Manassas, Va., United States of America) supplemented with 10% fetal bovine serum, 1% penicillin/streptomycin, 1% sodium pyruvate, and 10 μg/mL insulin.
(§2) HT-29 viability assays: Angiogenic human colon cancer (HT-29) cells were grown in 96 well plates at 2000 cells/well to 100 μL total volume. After a 24 hour incubation, the media was replaced with 100 μL of drug solution containing 0.5% DMSO and 0.5% phosphate buffered saline (PBS) in media, with drug concentrations varying as indicated. All concentrations were performed in quadruplicate. Cell viability was measured after 72 hours using CellTiter 96 Aqueous One Solution Assay (Promega Corporation, Madison, Wis., United States of America), according to the manufacturer's protocol.

[2] = tested on: MCF-7 cells (breast cancer); test: MCF-7 Viability Assays; format: cell-based, human
Description: as §1, §2
MCF-7 Viability Assays. As a further control, cell viability assays were also performed using MCF-7 cells (breast cancer). MCF-7 cells were assayed under the same conditions as HT-29, and also at 4000 cells/well and 72 hours. Unlike with HT-29, Pt(IV) drugs are active. […] NCP-1′-b was also tested but at 2000 cells/well.

[3] = MCF-7, 4000 cells/well, 72 hours

| IC50 ([2]; MCF-7, 2000 cells/well) | Molecule | cell death on treatment of HT-29 cells [1] | IC50 [2, 3] |
| --- | --- | --- | --- |
|  | [NH2][Pt]([NH2])([Cl])([Cl])([O]C(=O)CCC(=O)O)[O]C(=O)CCC(=O)O [DSCP, c,c,t-Pt(NH3)2Cl2(O2CCH2CH2CO2H)2] | did not lead to any appreciable cell death | 11.1 µM |
| 2.1 µM | cis-Pt(NH3)2Cl2 [cisplatin] |  | 10.7 µM |
